In patent US11230542B2, “Inhibitors of integrated stress response pathway” (Praxis Biotech LLC, priority 2017, dated 2022):
Where two headings read alike, the source gives them in different places.

Assays:
[1] = test system: ATF4; test: ATF4 expression inhibition assay (thapsigargin-stressed HEK293T cells, western blot); assay type: cell-based; settings: Homo sapiens, HEK-293T; for inhibition at 0.1 µM: 3 h with 100 nM thapsigargin (Tg) and 100 nM test compound; for inhibition at 0.1 µM / inhibition at 1 µM: Tg alone 0%, untreated 100%; for inhibition at 1 µM: 3 h with 100 nM thapsigargin (Tg) and 1 μM test compound; for IC50: 3 h with 100 nM Tg, test compound 1 nM to 1 μM
Procedure: HEK293T cells were maintained at 37° C. and 5% CO2 in Dulbecco's Modified Eagle's Media (DMEM) supplemented with 10% fetal bovine serum (FBS), 2 mM L-glutamine, 100 U/ml penicillin, and 100 μg/ml streptomycin. […] Cells without treatment or cells treated with Tg alone were used as controls.
After 3 hours of treatment with Tg and the test compound, cells were lysed with SDS-PAGE lysis buffer. Lysates were transferred to 1.5 ml tubes and sonicated for 3 min, and total protein amounts were quantified using BCA Protein Assay Kit (Pierce). Equal amount of proteins were loaded on SDS-PAGE gels. Proteins were transferred onto 0.2 μm PVDF membranes (BioRad) and probed with primary antibodies diluted in Tris-buffered saline supplemented with 0.1% Tween 20 and 3% bovine serum albumin.
(§1) ATF4 (11815) antibody was used as primary antibody (Cell Signaling Technologies). A horseradish peroxidase (HRP)-conjugated secondary antibody (Rockland) was employed to detect immune-reactive bands using enhanced chemiluminescence (ECL Western Blotting Substrate, Pierce). Quantification of protein bands was done by densitometry using ImageJ.
Percentages of ATF4 inhibition after induction with Tg in the presence of 100 nM or 1 μM of certain test compounds are shown in Table 2 and FIG. 1. Percentage of ATF4 inhibition was calculated as the percent reduction normalized to Tg treatment (0% inhibition) and untreated cells (100% inhibition). Also shown in Table 2 is the calculated IC50 for the test compounds. […] Accordingly, inhibition of ATF4 expression as a result of the test compound indicates suppression of the ISR pathway.

[2] = test system: CHO cells; test: Protein translation assay (puromycin incorporation in CHO cells, unstressed or Tg-stressed); assay type: cell-based, Chinese hamster; settings: for activity at 0.1 µM / activity at 1 µM: Cricetulus griseus, media alone 100%; for activity at 0.1 µM: read-out: % Recovery of protein expression (100 nM test compound); for protein translation: summary of Table 3; for protein synthesis in a cell versus ATF4 translation: under ISR-stressed or non-ISR stressed conditions
Procedure: CHO cells were maintained at 37° C. and 5% CO2 in DMEM supplemented with 10% fetal bovine serum (FBS), 2 mM L-glutamine, 100 U/ml penicillin, and 100 μg/ml streptomycin. After reaching 80% of confluence, cells were detached and seeded on 6 well plates in complete media, allowed to recover overnight and treated for 2 hours with 1 μM of the test compound (to assess protein synthesis levels in unstressed condition), or for 1 hour with 100 nM and 1 μM of the test compound and then co-treated with 300 nM Tg and 100 nM and 1 μM of the test compound (to assess the recovery of protein synthesis in a stressed condition). Cells treated with Tg alone were used as controls.
After the 2 hours treatments, media were replaced by adding 10 μg/ml puromycin (Sigma Aldrich) in complete media for 30 min. Media were removed and cells were lysed with SDS-PAGE lysis buffer. Lysates were transferred to 1.5 ml tubes and sonicated for 3 minutes and total protein amount were quantified using BCA Protein Assay Kit (Pierce). Equal amount of protein (30 μg) was loaded on SDS-PAGE gels. Proteins were transferred onto 0.2 μm PVDF membranes (BioRad) and probed with primary antibodies diluted in Tris-buffered saline supplemented with 0.1% Tween 20 and 3% bovine serum albumin.
as §1, with “Puromycin (12D10)” for “ATF4 (11815)”, “(Merck Millipore).” for “(Cell Signaling Technologies).”, “HRP-conjugated” for “horseradish peroxidase (HRP)-conjugated”
Percent increase of protein synthesis in unstressed cells (without Tg treatment) in the presence of media alone or certain test compounds is shown in Table 3 and FIG. 2. The percentage levels were normalized to the media alone condition, which correspond to 100% protein synthesis.
Percent recovery of protein synthesis in stressed cells (with Tg treatment) due to the test compounds at 100 nM or 1 μM is shown in FIGS. 3A and 3B, respectively, and in Table 3. The levels were normalized to the media alone and to Tg alone conditions, which correspond to 100% and 0% respectively.

[3] = CHO cells stressed with 300 nM Tg, Tg alone 0%
[4] = CHO cells stressed with 300 nM Tg, Tg alone 0%, read-out: % Recovery of protein expression (1 μM test compound)
[5] = unstressed CHO cells, 2 h, read-out: % Protein expression relative to untreated (1 μM test compound)

| IC50 [1] | SMILES | inhibition at 0.1 µM [1] | inhibition at 1 µM [1] | activity at 0.1 µM [2, 3] | activity at 1 µM [2, 4] | activity at 1 µM [2, 5] | protein translation [2] | protein synthesis in a cell versus ATF4 translation [2] |
| --- | --- | --- | --- | --- | --- | --- | --- | --- |
| – | O=C(COc1ccc(Cl)cc1)N[C@H]1CC[C@H](NC[C@H](O)COc2ccc(Cl)cc2)CC1 (single isomer, unassigned) [Compound 4, (−)-2-(4-chlorophenoxy)-N-(4-((3-(4-chlorophenoxy)-2-hydroxypropyl)amino)cyclohexyl)acetamide] | 31% | 54% | – | – | – | – | – |
| 82.8 nM | O=C(COc1ccc(Cl)c(F)c1)N[C@H]1CC[C@H](NC[C@@H](O)COc2ccc(Cl)c(F)c2)CC1 (single isomer, unassigned) [Compound 6, (+)-2-(4-chloro-3-fluorophenoxy)-N-(4-((3-(4-chloro-3-fluorophenoxy)-2-hydroxypropyl)amino)cyclohexyl)acetamide] | 52% | 83% | 60.2% | 197% | 195% | – | – |
| – | O=C(COc1ccc(Cl)c(F)c1)N[C@H]1CC[C@H](NC[C@H](O)COc2ccc(Cl)c(F)c2)CC1 (single isomer, unassigned) [Compound 7, (−)-2-(4-chloro-3-fluorophenoxy)-N-(4-((3-(4-chloro-3-fluorophenoxy)-2-hydroxypropyl)amino)cyclohexyl)acetamide] | 0% | 0% | – | – | – | – | – |
| – | O=C(COc1ccc(Cl)cc1)NC1CCN(C[C@@H](O)COc2ccc(Cl)cc2)CC1 (single isomer, unassigned) [Compound 16, (+)-2-(4-chlorophenoxy)-N-(1-(3-(4-chlorophenoxy)-2-hydroxypropyl)piperidin-4-yl)acetamide] | 0% | 38% | – | – | – | – | – |
| – | O=C(COc1ccc(Cl)c(F)c1)NC1CCN(C[C@@H](O)COc2ccc(Cl)c(F)c2)CC1 (single isomer, unassigned) [Compound 27, (+)-2-(4-chloro-3-fluorophenoxy)-N-(1-(3-(4-chloro-3-fluorophenoxy)-2-hydroxypropyl)piperidin-4-yl)acetamide] | 54% | 73% | – | – | – | – | – |
| 29.9 nM | O=C(NC1CCN(C[C@H](O)COc2ccc(Cl)c(F)c2)CC1)c1cc2cc(Cl)ccc2o1 (single isomer, unassigned) [Compound 149, (+)-5-chloro-N-(1-(3-(4-chloro-3-fluorophenoxy)-2-hydroxypropyl)piperidin-4-yl)benzofuran-2-carboxamide] | 62% | 96% | 107% | 281% | 138% | – | – |
| – | O=C(NC1CCN(C[C@@H](O)COc2ccc(Cl)c(F)c2)CC1)c1cc2cc(Cl)ccc2o1 (single isomer, unassigned) [Compound 150, (−)-5-chloro-N-(1-(3-(4-chloro-3-fluorophenoxy)-2-hydroxypropyl)piperidin-4-yl)benzofuran-2-carboxamide] | 0% | 43% | 61% | 200% | 184% | increased protein translation | increase protein synthesis in a cell without full inhibition of ATF4 translation |
| – | O=C(NC1CCN(C[C@@H](O)COc2ccc(Cl)c(F)c2)CC1)c1ccc2cc(Cl)ccc2n1 (single isomer, unassigned) [Compound 153, (−)-6-chloro-N-(1-(3-(4-chloro-3-fluorophenoxy)-2-hydroxypropyl)piperidin-4-yl)quinoline-2-carboxamide] | 0% | 0% | 51.5% | 236% | 323% | increased protein translation | increase protein synthesis in a cell without full inhibition of ATF4 translation |
| 13.7 nM | O=C(N[C@H]1CC[C@H](NC[C@@H](O)COc2ccc(Cl)c(F)c2)CC1)c1cc2cc(Cl)ccc2o1 (single isomer, unassigned) [Compound 154, (+)-trans-5-chloro-N-(4-((3-(4-chloro-3-fluorophenoxy)-2-hydroxypropyl)amino)cyclohexyl)benzofuran-2-carboxamide] | 92% | 96% | 96.3% | 234% | 188% | – | – |
| 9.1 nM | O=C(COc1ccc(Cl)cc1)N[C@H]1CC[C@H](NC(=O)[C@@H]2CNc3cc(Cl)ccc3O2)CC1 (single isomer, unassigned) [Compound 158, (+)-trans-6-chloro-N-(4-(2-(4-chlorophenoxy)acetamido)cyclohexyl)-3,4-dihydro-2H-benzo[b][1,4]oxazine-2-carboxamide] | 96% | 96% | 86.8% | 199% | 168% | – | – |
| – | O=C(COc1ccc(Cl)cc1)N[C@H]1CC[C@H](NC(=O)C(O)COc2ccc(Cl)cc2)CC1 (stereo partly drawn) [Compound 8, trans-3-(4-chlorophenoxy)-N-(4-(2-(4-chlorophenoxy)acetamido)cyclohexyl)-2-hydroxypropanamide] | 0% | 0% | – | – | – | – | – |
| – | O=C(COc1ccc(Cl)c(F)c1)N[C@H]1CC[C@H](NC(=O)C(O)COc2ccc(Cl)c(F)c2)CC1 (stereo partly drawn) [Compound 9, trans-3-(4-chloro-3-fluorophenoxy)-N-(4-(2-(4-chloro-3-fluorophenoxy)acetamido)cyclohexyl)-2-hydroxypropanamide] | 12% | 20% | – | – | – | – | – |
| – | O=C(COc1ccc(Cl)c(F)c1)N[C@H]1CCCN(CC(O)COc2ccc(Cl)c(F)c2)C1 (stereo partly drawn) [Compound 11, 2-(4-chloro-3-fluorophenoxy)-N-((3S)-1-(3-(4-chloro-3-fluorophenoxy)-2-hydroxypropyl)piperidin-3-yl)acetamide] | 0% | 0% | – | – | – | – | – |
| – | O=C(COc1ccc(Cl)c(F)c1)N[C@@H]1CCCN(CC(O)COc2ccc(Cl)c(F)c2)C1 (stereo partly drawn) [Compound 12, 2-(4-chloro-3-fluorophenoxy)-N-((3R)-1-(3-(4-chloro-3-fluorophenoxy)-2-hydroxypropyl)piperidin-3-yl)acetamide] | 0% | 0% | – | – | – | – | – |
| – | O=C(COc1ccc(Cl)c(F)c1)N1CCC(NCC(O)COc2ccc(Cl)c(F)c2)CC1 (centres unmarked) [Compound 14, 2-(4-chloro-3-fluorophenoxy)-1-(4-((3-(4-chloro-3-fluorophenoxy)-2-hydroxypropyl)amino)piperidin-1-yl)ethan-1-one] | 0% | 0% | – | – | – | – | – |

| SMILES | IC50 [1] | inhibition at 0.1 µM [1] | inhibition at 1 µM [1] | activity at 0.1 µM [2, 3] | activity at 1 µM [2, 4] | activity at 1 µM [2, 5] | protein translation [2] | protein synthesis in a cell versus ATF4 translation [2] |
| --- | --- | --- | --- | --- | --- | --- | --- | --- |
| O=C(COc1ccc(Cl)cc1)NC1CCN(CC(O)COc2ccc(Cl)cc2)CC1 (single isomer, unassigned; (-)) [Compound 15, (−)-2-(4-chlorophenoxy)-N-(1-(3-(4-chlorophenoxy)-2-hydroxypropyl)piperidin-4-yl)acetamide] | 52.1 nM | 77% | 99% | 35.6% | 159% | 68.3% | – | – |
